Data reported in patent US12583855B2, “RET selective inhibitor, preparation method therefor and use thereof” (SHOUYAO HOLDINGS (BEIJING) CO., LTD., priority 2019, dated 2026).
Positions count from the first letter of the chain named.

Experiments:
Assay type in all cases: biochemical
[1] = target: T1, RET^WT (Homo sapiens, UniProt P07949); experiment: In vitro enzymatic activity assay on RET^WT (HTRF); settings: GST-RET^WT (658-1114 aa) 0.5 nM, ATP 25 μM
T1 construct: GST-RET^WT (658-1114 aa, final concentration of 0.5 nM)
T1 sequence (P07949 658-1114): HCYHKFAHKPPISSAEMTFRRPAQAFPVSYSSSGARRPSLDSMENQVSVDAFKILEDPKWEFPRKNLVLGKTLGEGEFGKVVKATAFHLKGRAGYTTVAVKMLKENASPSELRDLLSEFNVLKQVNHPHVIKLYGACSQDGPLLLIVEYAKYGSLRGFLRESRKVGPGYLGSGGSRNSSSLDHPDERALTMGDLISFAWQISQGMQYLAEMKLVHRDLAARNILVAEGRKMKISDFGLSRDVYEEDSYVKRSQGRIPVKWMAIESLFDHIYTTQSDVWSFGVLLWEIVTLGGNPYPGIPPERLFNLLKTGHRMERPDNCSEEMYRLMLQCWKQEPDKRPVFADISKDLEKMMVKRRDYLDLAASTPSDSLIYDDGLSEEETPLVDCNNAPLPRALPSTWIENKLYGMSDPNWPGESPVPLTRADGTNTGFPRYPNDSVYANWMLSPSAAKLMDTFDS
Description: 1. In Vitro Enzymatic Activity Assay for Compounds on RET^WT
The compounds were diluted 5-fold with 100% DMSO starting from 0.2 mM (7 concentrations in total), and 2 μL of each concentration was added to 48 μL of reaction buffer (50 mM HEPES pH7.5, 0.1 mM Na3VO4, 5 mM MgCl2. 1 mM DTT, 0.001% Tween 20, and 100 μg/ml BSA) for dilution and mixing.
The 384-well plate was placed in an incubator and reacted at 23° C. for 2 h before the reaction was stopped by the addition of 5 μL of TK Antibody (purchased from Cisbio) and 5 μL of Streptavidin-XL665 (purchased from Cisbio). […] The enzymatic activity signal of RET^WT was measured at 7 concentrations for each compound and the data were calculated using GraphPad Prism software to obtain the IC50 value for the compound.

[2] = target: T2, RET^V804M (Homo sapiens, UniProt P07949, V804M); experiment: In vitro enzymatic activity assay on RET^V804M (HTRF); settings: GST-RET^V804M (658-1114 aa) 0.02 nM, ATP 1.5 μM
T2 construct: GST-RET^V804M (658-1114 aa, final concentration of 0.02 nM)
T2 sequence (P07949 658-1114 V804M): T1 sequence (P07949 658-1114) with V147M

[3] = target: VEGFR2 (Homo sapiens, UniProt P35968); experiment: In vitro enzymatic activity assay on VEGFR2 (HTRF); settings: GST-VEGFR2 0.1 nM, ATP 2.5 μM
Description: 3. n Vitro Enzymatic Activity Assay for Compounds on VEGFR2
The compounds were diluted 5-fold with 100% DMSO starting from 1 mM (7 concentrations in total), and 2 μL of each concentration was added to 48 μL of reaction buffer (50 mM HEPES pH 7.5, 0.1 mM Na3VO4, 5 mM MgCl2, 1 mM MnCl2, 1 mM DTT, 0.001% Tween 20, and 100 μg/ml BSA) for dilution and mixing. 2.5 μL of compounds and 5 μL of GST-VEGFR2 (final concentration of 0.1 nM) were added to a 384-well plate (OptiPlate-384, purchased from PerkinElmer), the mixture was mixed by centrifugation, and 2.5 μL of ATP (final concentration of 2.5 μM) and TK Peptide Substrate mixture (final concentration of 1 μM, purchased from Cisbio) were added to start the reaction, with a total reaction volume of 10 μL. The 384-well plate was placed in an incubator and reacted at 23° C. for 1.5 h before the reaction was stopped by the addition of 5 μL of TK Antibody (purchased from Cisbio) and 5 μL of Streptavidin-XL665 (purchased from Cisbio). After further incubation in the incubator for 1 h. fluorescence values (excitation at 320 nm, detecting emitted light at 665 nm and 620 nm, and a ratio of the two as an enzyme activity signal) were read on Envision (purchased from PerkinElmer). The enzymatic activity signal of VEGFR2 was measured at 7 concentrations for each compound and the data were calculated using GraphPad Prism software to obtain the IC50 value for the compound.

Sequence of VEGFR2 (P35968 20-1356): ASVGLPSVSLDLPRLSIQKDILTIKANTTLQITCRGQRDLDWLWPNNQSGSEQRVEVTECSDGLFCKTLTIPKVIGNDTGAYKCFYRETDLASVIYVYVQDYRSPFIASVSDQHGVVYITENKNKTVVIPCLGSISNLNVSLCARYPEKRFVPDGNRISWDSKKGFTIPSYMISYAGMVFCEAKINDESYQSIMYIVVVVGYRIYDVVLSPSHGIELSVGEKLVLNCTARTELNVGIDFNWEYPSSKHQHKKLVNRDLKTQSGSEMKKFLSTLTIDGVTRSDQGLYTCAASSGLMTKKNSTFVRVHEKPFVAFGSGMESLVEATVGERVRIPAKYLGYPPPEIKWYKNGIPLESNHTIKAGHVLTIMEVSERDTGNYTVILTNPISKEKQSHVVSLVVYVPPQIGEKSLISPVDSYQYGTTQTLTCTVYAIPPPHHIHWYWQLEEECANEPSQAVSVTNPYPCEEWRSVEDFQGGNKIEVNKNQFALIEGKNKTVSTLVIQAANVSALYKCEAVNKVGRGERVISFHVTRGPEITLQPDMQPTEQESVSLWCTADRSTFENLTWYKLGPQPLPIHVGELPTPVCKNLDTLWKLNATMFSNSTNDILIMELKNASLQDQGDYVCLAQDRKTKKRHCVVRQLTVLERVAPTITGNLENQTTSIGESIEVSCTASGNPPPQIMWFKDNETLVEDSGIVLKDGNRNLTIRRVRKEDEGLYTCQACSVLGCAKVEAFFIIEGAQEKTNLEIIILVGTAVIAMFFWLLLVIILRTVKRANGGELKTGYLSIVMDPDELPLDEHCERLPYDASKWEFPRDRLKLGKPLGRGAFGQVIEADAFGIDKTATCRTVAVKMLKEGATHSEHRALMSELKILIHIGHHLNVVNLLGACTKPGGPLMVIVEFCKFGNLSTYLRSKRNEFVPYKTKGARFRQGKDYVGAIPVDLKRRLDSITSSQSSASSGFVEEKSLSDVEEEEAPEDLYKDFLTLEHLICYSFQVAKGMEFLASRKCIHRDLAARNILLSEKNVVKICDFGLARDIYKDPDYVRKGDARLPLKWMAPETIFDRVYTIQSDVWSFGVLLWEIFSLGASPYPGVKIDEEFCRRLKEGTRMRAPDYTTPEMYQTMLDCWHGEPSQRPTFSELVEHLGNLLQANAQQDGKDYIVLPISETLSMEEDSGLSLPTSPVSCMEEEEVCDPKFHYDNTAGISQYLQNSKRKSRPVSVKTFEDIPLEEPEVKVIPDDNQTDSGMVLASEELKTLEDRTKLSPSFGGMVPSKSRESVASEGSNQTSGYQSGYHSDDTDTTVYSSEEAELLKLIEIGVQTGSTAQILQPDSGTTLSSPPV

IC50 [1]	IC50 [2]	IC50 [3]	SMILES
0.676 nM	4.19 nM	14.4 nM	CSc1cccc(CN2C3CC2CN(c2ccc(-c4cc(-c5cnn(C(F)F)c5)cn5ncc(C#N)c45)cn2)C3)n1 [Example 74, 6-(1-(difluoromethyl)-1Hpyrazol-4-yl)-4-(6-(6-((6-(methylthio)pyridin-2-yl)methyl)-3,6-diazabicyclo[3.1.1]heptan-3-yl)pyridin-3-yl)pyrazolo[1,5-a]pyridine-3-carbonitrile]
0.779 nM	6.37 nM	18.2 nM	COC/C=C/C(=O)N1C2CC1CN(c1ccc(-c3cc(-c4cnn(C)c4)cn4ncc(C#N)c34)cn1)C2 [Example 61, (E)-4-(6-(6-(4-methoxybut-2-enoyl)-3,6-diazabicyclo[3.1.1]heptan-3-yl)pyridin-3-yl)-6-(1-methyl-1Hpyrazol-4-yl)pyrazolo[1,5-a]pyridine-3-carbonitrile]
0.324 nM	2.52 nM	55.7 nM	CS(=O)(=O)c1ccc(CN2C3CC2CN(c2cnc(-c4cc(-c5cnn(C(F)F)c5)cn5ncc(C#N)c45)cn2)C3)cc1 [Example 70, 4-(5-(6-(4-(methylsulfonyl)benzyl)-3,6-diazabicyclo[3.1.1]heptan-3-yl)pyrazin-2-yl)-6-(1-(difluoromethyl)-1Hpyrazol-4-yl) pyrazolo[1,5-a] pyridine-3-carbonitrile]
0.465 nM	3.97 nM	80.5 nM	CS(=O)(=O)c1ccccc1CN1C2CC1CN(c1ccc(-c3cc(N4CC(F)(F)C4)cn4ncc(C#N)c34)cn1)C2 [Example 67, 6-(3,3-difluoroazetidin-1-yl)-4-(6-(6-(2-(methylsulfonyl)benzyl)-3,6-diazabicyclo [3.1.1]heptan-3-yl)pyridin-3-yl)pyrazolo[1,5-a]pyridine-3-carbonitrile]
0.716 nM	5.47 nM	63.1 nM	CS(=O)(=O)c1ccc(CN2C3CCC2CN(c2ccc(-c4cc(-c5cnn(C(F)F)c5)cn5ncc(C#N)c45)cn2)C3)cc1 [Example 69, 6-(1-difluoromethyl-1Hpyrazol-4-yl)-4-(6-(8-(4-(methylsulfonyl)benzyl)-3,8-diazabicyclo[3.2.1]octan-3-yl)pyridin-3-yl)pyrazolo[1,5-a]pyridine-3-carbonitrile]

The remaining lines, values behind:

SMILES	IC50 [1]	IC50 [2]	IC50 [3]
COc1ccc(CN2CCN(c3ccc(-c4cc(N5CC(OC)C5)cn5ncc(C#N)c45)cn3)CC2)cn1 [Example 33, 6-(3-methoxyazetidin-1-yl)-4-(6-(4-((6-methoxypyridin-3-yl)methyl)piperazin-1-yl)pyridin-3-yl)pyrazolo[1,5-a]pyridine-3-carbonitrile]	0.944 nM	2.84 nM	7.5 nM
CS(=O)(=O)c1ccc(CN2C3CC2CN(c2ccc(-c4cc(N5CC(C#N)C5)cn5ncc(C#N)c45)cn2)C3)cc1 [Example 35, 6-(3-cyanoazetidin-1-yl)-4-(6-(6-(4-(methylsulfonyl)benzyl)-3,6-diazabicyclo[3.1.1]heptan-3-yl)pyridin-3-yl)pyrazolo[1,5-a]pyridine-3-carbonitrile]	0.172 nM	1.47 nM	9.6 nM
C=CC(=O)N1CCN(c2ccc(-c3cc(-c4cnn(C)c4)cn4ncc(C#N)c34)cn2)CC1 [Example 1, 4-(6-(4-acryloylpiperazin-1-yl)pyridin-3-yl)-6-(1-methyl-1Hpyrazol-4-yl)pyrazolo[1,5-a]pyridine-3-carbonitrile]	0.352 nM	1.21 nM	4.49 nM
COc1ccc(CN2C3CC2CN(c2ccc(-c4cc(N5CC6(COC6)C5)cn5ncc(C#N)c45)cn2)C3)cn1 [Example 14, 4-(6-(6-((6-methoxypyridin-3-yl)methyl)-3,6-diazabicyclo[3.1.1]heptan-3-yl)pyridin-3-yl)-(2-oxa-azaspiro[3.3]hepta-6-yl)pyrazolo[1,5-a]pyridine-3-carbonitrile]	0.762 nM	0.629 nM	1.55 nM
COc1ccc(CN2C3CC2CN(c2ccc(-c4cc(N5CC(O)(C(F)(F)F)C5)cn5ncc(C#N)c45)cn2)C3)cn1 [Example 28, 6-(3-hydroxy-3-(trifluoromethyl)azetidin-1-yl)-4-(6-(6-((6-methoxypyridin-3-yl)methyl)-3,6-diazabicyclo[3.1.1]heptan-3-yl)pyridin-3-yl)pyrazolo[1,5-a]pyridine-3-carbonitrile]	0.757 nM	2.5 nM	
CS(=O)(=O)c1ccc(CN2C3CC2CN(c2ccc(-c4cc(N5CC(F)(F)C5)cn5ncc(C#N)c45)cn2)C3)cc1 [Example 36, 6-(3,3-difluoroazetidin-1-yl)-4-(6-(6-(4-(methylsulfonyl)benzyl)-3,6-diazabicyclo [3.1.1]heptan-3-yl)pyridin-3-yl)pyrazolo[1,5-a]pyridine-3-carbonitrile]	0.179 nM	2.58 nM	16.9 nM
COc1ccc(CN2CCN(c3ccc(-c4cc(N5CCOCC5)cn5ncc(C#N)c45)cn3)CC2)cn1 [Example 19, 6-(morpholino-1-yl)-4-(6-(4-((6-methoxypyridin-3-yl)methyl)piperazin-1-yl)pyridin-3-yl)pyrazolo[1,5-a]pyridine-3-carbonitrile]	0.636 nM		94 nM
COc1ccc(CN2C3CC2CN(c2ccc(-c4cc(N5CC(OC)C5)cn5ncc(C#N)c45)cn2)C3)cn1 [Example 27, 6-(3-methoxyazetidin-1-yl)-4-(6-(6-((6-methoxypyridin-3-yl)methyl)-3,6-diazabicyclo[3.1.1]heptan-3-yl)pyridin-3-yl)pyrazolo[1,5-a]pyridine-3-carbonitrile]	0.536 nM		2.28 nM
COc1ccc(CN2C3CC2CN(c2ccc(-c4cc(N5CC(C#N)C5)cn5ncc(C#N)c45)cn2)C3)cn1 [Example 13, 6-(3-cyanoazetidin-1-yl)-4-(6-(6-((6-methoxypyridin-3-yl)methyl)-3,6-diazabicyclo[3.1.1]heptan-3-yl)pyridin-3-yl)pyrazolo[1,5-a]pyridine-3-carbonitrile]	0.421 nM	0.332 nM	3.44 nM
COc1ccc(CN2C3CC2CN(c2ccc(-c4cc(N5CC6(CCOCC6)C5)cn5ncc(C#N)c45)cn2)C3)cn1 [Example 30, 4-(6-(6-((6-methoxypyridin-3-yl)methyl)-3,6-diazabicyclo[3.1.1]heptan-3-yl)pyridin-3-yl)-6-(7-oxa-2-azaspiro[3.5]nonan-2-yl) pyrazolo[1,5-a]pyridine-3-carbonitrile]	0.68 nM	1.11 nM	
CC(C)(O)COc1cc(-c2ccc(N3CC4CC(C3)N4Cc3ccc(S(C)(=O)=O)cc3)nc2)c2c(C#N)cnn2c1 [Example 38, 6-(2-hydroxy-2-methylpropoxy)-4-(6-(6-(4-(methylsulfonyl)benzyl)-3,6-diazabicyclo[3.1.1]heptan-3-yl)pyridin-3-yl)pyrazolo[1,5-a]pyridine-3-carbonitrile]	0.419 nM		40.3 nM
